How the values were obtained:
rat aorta = conditions: cited from earlier work; for vasorelaxing effect: Chen and Pace Asciak, Gen. Pharmac. 27(2), 363-366 (1996)
[1] = system: 2nd order mesenteric artery side branches; experiment: Reactivity of isolated arteries: dilator effect during contraction induced by 40 mmol/L K+; parameters: species or system Spontaneously Hypertensive Rats (SHR)
Description: Segments of 2nd order mesenteric artery side branches were isolated from 14 weeks old male Spontaneously Hypertensive Rats (SHR). Two stainless-steel wires (diameter 40 μm) were inserted in the lumen of the arterial segments, which were then mounted in organ chambers between an isometric force transducer and a displacement device (Danish Myotechnology by J. P. Trading, Denmark). The organ chambers were filled with Krebs-Ringer bicarbonate solution which was maintained at 37° C. and continuously aerated with 95% O2 and 5% CO2. Before the actual experiments started, arterial segments were stretched to their individual optimal lumen diameter for mechanical performance, i.e. the diameter at which maximal contractile responses to noradrenaline ([…]) were obtained. In each experiment four second order mesenteric resistance arterial segments from one animal were mounted in individual organ chambers and studied in parallel. At the start of the experiments, all four arterial preparations were incubated during 20 min with capsaicin (1 μmol/L) to persistently desensitize sensory-motor nerves and to obtain a stable and considerable contractile response to potassium (K^+, 40 mmol/L). During all the experiments superoxide dismutase (SOD, 5 U/ml) was present, to preserve stability of the metabolites. We tested the effects of the 35 different phenolic compounds using a Plackett-Burman screening design. The experiment consisted of 5 separate saturated 8 run Plackett-burman designs. Each design contained a subset of 7 phenolic compounds (Factors): One of the compounds tested was trans-resveratrol (in this case compound 30). […] In this way, the effects of different exposure times to the mixtures (7, 30 and 90 min) on K+-induced contraction, could be evaluated. […] Effects of increasing concentrations of the solvent and of the mixes (0.1 to 100 umol/L) during contractile responses to 40 mmol/L K+, were calculated as % change of the level of pre-contraction. […]

Row | Structure (SMILES) | vasorelaxing effect (rat aorta) | EC50 ([1]; Rattus norvegicus, isolated SHR mesenteric resistance arteries precontracted with 40 mmol/L K+, found by comparing mixtures (Plackett-Burman design), corrected for DMSO solvent, read-out: EC50 of dilation of the arteries) | influence on the dilation of the arteries ([1]; at a low concentration, comparison of different mixtures) | concentration at which the maximum dilatation was obtained ([1]; isolated SHR mesenteric resistance arteries precontracted with 40 mmol/L K+, mixtures tested 0.1-100 umol/L) | relaxation of the rat aorta (rat aorta; Fitzpatrick et al, Am. J. physiol. 265, H774-H778, 1993)
1 | O=c1c(O)c(-c2ccc(O)c(O)c2)oc2cc(O)cc(O)c12 [quercitin] | vasorelaxing effect |  |  |  | 
2 | Oc1ccc(C=Cc2cc(O)cc(O)c2)cc1 [trans-resveratrol, 3,5,4′-trihydroxystilbene] |  | 11.6 µM | significant influence | 100 µM | 
3 | Oc1ccc(C=Cc2cc(O)cc(O)c2)cc1 [resveratrol] | vasorelaxing effect |  |  |  | did not relax
